What was measured:
[1] = powder, cited from earlier work
[2] = system: lashes and hair around the eyes; test: Study of lashes and hair around the eyes of glaucoma patients administering bimatoprost in only one eye (slit lamp biomicroscope); assay type: in vivo, human; conditions: one drop daily of 0.03% ophthalmic solution to one eye
Protocol: A study is initiated to systematically evaluate the appearance of lashes and hair around the eyes of patients who are administering bimatoprost in only one eye. The study involves 10 subjects, 5 male, 5 female, average age 70 years, (ranging from 50-94 years). All patients have glaucoma. Each subject is treated daily by the topical application of one drop of bimatoprost at a dosage of 1.5 µg/ml/eye/day (0.03%, by weight, ophthalmic solution, sold under the names Lumigan® and Latisse® by Allergan, Irvine, Calif., U.S.A.) to the region of one eye by instilling the drop onto the surface of the eye. The region of the fellow control eye is not treated with bimatoprost and served as a control.
In the course of treatment with eye drops, there is typically spontaneous tearing, and excess fluid from the drops and associated tears gathers at the lid margins. In the course of wiping the drug containing fluid from the lid margins and adjacent lid, a thin film of the fluid is routinely spread to contact the adjacent skin of the lid area.
The study is limited to subjects who have administered bimatoprost to one eye for more than 3 months. The mean duration of exposure to bimatoprost prior to assessing the parameter of lash growth between the control and study eye is 129 days (range 90-254 days). Observations are made under high magnification at the slit lamp biomicroscope. Documentation of differences between the control and treatment areas is accomplished using a camera specially adapted for use with the slit lamp biomicroscope. The results of the observations are as follows: Length of lashes: Increased length of eyelashes is regularly observed on the side treated with bimatoprost. The difference in length varies from approximately 10% to as much as 30%. […] In areas where there are a large number of lashes in the control eye, the increased number of lashes in the bimatoprost-treated eye gave the lashes on the treated side a more thickly matted overall appearance. […] These long, thick lash-like hairs were present in the central portion of the lids of several patients in a linear arrangement just above the lash line. Hairs are present at similar locations in the control eyes but are by contrast thinner or more fine in appearance, have less luster and pigment and are more flat against the skin of the lid typical of vellus or intermediate hairs. In several patients, lash-like terminal hairs grow luxuriantly in the medial canthal area in the treated eye. In the corresponding control eye, vellus hairs are seen at the same location. Lash-like hairs are also present in the lateral canthal area of the treated eye but not the control eye in several subjects. […]

[3] = system: lashes and adjacent hairs; test: Daily-practice observation of lashes in glaucoma patients treated with bimatoprost in one eye; assay type: in vivo, human
From the text: In the course of treating patients having glaucoma, treatment may only be appropriate in one eye. […] The lash appearance on the lids of the treated eye would have appeared quite attractive if it represented a bilateral phenomenon. Because of its asymmetric nature, the long lashes on one side could be construed as disturbing from a cosmetic standpoint. Because of the very unusual appearance a systematic examination of other patients who were taking bimatoprost in only one eye was made. It soon became apparent that this altered appearance was not an isolated finding. […] Definite differences could be identified to varying degrees in the lashes and adjacent hairs of all patients who were taking the drug on a unilateral basis for longer than 6 months. These findings were totally unexpected and surprising.
The changes in the lashes after topical application of bimatoprost were apparent on gross inspection in several patients once attention was focused on the issue. In those with light colored hair and lashes, the differences were only seen easily with the aid of the high magnification and lighting capabilities of the slit lamp biomicroscope. In the course of a glaucoma follow up examination, attention is generally immediately focused on the eye itself. […]

CCNC(=O)CCC/C=C\C[C@@H]1[C@@H](/C=C/[C@@H](O)CCc2ccccc2)[C@H](O)C[C@@H]1O [Bimatoprost, (Z)-7-[(1R,2R,3R,5S)-3,5Dihydroxy-2-[(1E,3S)-3-hydroxy-5-phenyl-1-pentenyl]cyclopentyl]-5-N-ethylheptenamide]
solubility in ethyl alcohol ([1]; ethyl alcohol): very soluble
solubility in methyl alcohol ([1]; methyl alcohol): very soluble
solubility in water ([1]; water): slightly soluble
Growth of vellus hair on lids, treated vs control eye ([2]; areas below and lateral to the lower lid): increased in number, appear more robust and are much longer and thicker
Perpendicular angulation of hairs, treated vs control eye ([2]; lash-like hairs above lash line and in canthal areas): leave the surface of the skin at a more acute angle
Number of lashes, treated vs control eye ([2]; mean exposure 129 days, fellow eye untreated): Increased numbers of lashes
Auxiliary lash-like hair growth, treated vs control eye ([2]; several patients): apparent increase in lash-like hair in transitional areas
Lash appearance in treated eye vs non-treated eye ([3]; glaucoma patient treated in one eye): longer, thicker and fuller in the treated eye than in the non-treated eye
Hypertrichosis in the region of treatment ([3]; patients treated in or around the eye): regularly develop hypertrichosis
